Marks after values point to notes of the source that are not given here.
Tests used:
[1] = system: citric acid-induced cough in guinea pigs; experiment: Citric acid-induced cough test; format: in vivo; details: x ± s
Description: Test animals: Guinea pigs (body weight 180-220 g, half male and half female), purchased from Beijing Vital River Laboratory Animal Technology Co., Ltd.
(§1) Test reagent: Codeine phosphate (Europharm Laboratoires Co., Ltd.).
The devices are the same as in Test Example 1.
The guinea pigs were adaptively fed for 1 day followed by preliminary screening.
The guinea pigs were placed one by one in an inverted 5 L sealed glass bell jar, and treated by a constant pressure spray stimulation (17.5% citric acid solution) for one minute. The number of coughs within 5 minutes from the spray was recorded, and the guinea pigs which coughed more than 10 times were chosen as qualified test animals. The qualified guinea pigs were randomly grouped into blank control group, compound of the present invention group, and codeine phosphate-positive control group. The above groups were intragastrically administrated with the drugs according to body weight, and the blank control group was administrated with equal volume of distilled water. The intragastrical administration was carried out for five consecutive days. The guinea pigs were placed in an inverted 5 L sealed glass bell jar for one hour after the last administration, and treated by the nebulizer for 30 seconds. The latentperiod of the cough of the guinea pigs (the time from starting spraying of 17.5% citric acid to coughing starting) and the number of coughs within 5 minutes were observed.
(§2) Statistical method: data analysis of the experimental data was carried out with SPSS 10.0 statistical software, and t-test was used for comparison between groups.

[2] = system: tracheal phenol red excretion amount in mice; experiment: Phlegm-reducing effect (tracheal phenol red excretion); format: in vivo, Kunming mice; details: x ± s, n=16
Description: Test animals: Kunming mice (body weight 18-22 g, half male and half female), purchased from Beijing Vital River Laboratory Animal Technology Co., Ltd. Test reagent: Ammonium chloride (Guangzhou Chemical Reagent Factory). The devices were the same as in Test Example 1. According to the method of LI Yikui's phlegm-reducing test, the mice were fed normally for 3 days, and then randomly grouped into blank control group, compound of the present invention group, and ammonium chloride-positive control group. […] The phenol red excretion amount was calculated from the phenol red standard curve, and the significance of the difference between the groups was compared. Statistical method: data analysis of the experimental data was carried out with SPSS 10.0 statistical software, and t-test was used for comparison between groups.

[3] = system: aqueous ammonia-induced cough in mice; experiment: Aqueous ammonia-induced cough test; format: in vivo, Kunming mice; details: x ± s, n=16
Description: Test animals: Kunming mice (body weight 18-22 g, half male and half female), purchased from Beijing Vital River Laboratory Animal Technology Co., Ltd., with Certificate No.: SCXK-(Beijing)2012-001.
as §1
Device: YC-Y800 Medical ultrasonic nebulizer (Beijing Yadu Technology Co., Ltd., with Beijing Pharmaceutical Supervision Certificate No.: Beijing 99 No. 223145); UV-2450 UV-visible spectrophotometer (Shimadzu Co., Japan); UX420S Animal balance (Shimadzu Co., Japan); and milli electronic balance (Sartorius Co., Germany).
The mice were adaptively fed for 3 days followed by screening. The ultrasonic nebulizer was preheated, and added with 40 ml of fresh aqueous ammonia solution (12.5%). The mice were placed in 1000 ml beaker. The beaker's mouth was sealed with a plastic wrap with two holes opened (one for inserting the ultrasonic atomizer outlet tube, and the other for ventilation). Ammonia was continuously introduced by the ultrasonic atomizer at its minimal power for 60 seconds, followed by stopping the ultrasonic atomizer immediately. The plastic wrap was quickly opened to allow the ammonia to diffuse naturally. Mice which coughed for less than 10 times or more than 80 times within three minutes were excluded. The qualified mice were randomly grouped into blank control group, compound of the present invention group, and codeine phosphate-positive control group. The above groups were intragastrically administrated with the drugs according to body weight, and the blank control group was administrated with equal volume of distilled water. The administration was carried out once a day for five consecutive days. The mice were placed one by one in an inverted 5 L sealed glass bell jar for one hour after the last administration, and treated by a constant pressure ammonia spray stimulation for 15 seconds (10 mL of ammonia spray/time for one mouse, and changed each time). After the stimulation stopped, the mice were taken out to observe the latentperiod of the cough of the mice (the time from spraying starting to coughing starting) and the number of coughs within 2 minutes (cough was identified by severely contracting the abdominal muscles and opening the mouth, with a slight cough sound sometimes).
as §2

[4] = 20 mg·kg^-1 intragastric for five days, 17.5% citric acid spray 1 h after last administration
[5] = 20 mg·kg^-1 intragastric for five days, phenol red i.p. 30 min after last administration
[6] = 20 mg·kg^-1 intragastric once a day for five days, ammonia spray 1 h after last administration
[7] = positive control dose 15 mL·kg^-1 intragastric once a day for five days

O=C(O)CC[C@@H](NC(=O)Cc1cn([C@@H]2O[C@H](CO)[C@@H](O)[C@H](O)[C@H]2O)c2ccc(Cl)cc12)C(=O)O [Compound 10]
Latentperiod [1, 4]: 139 ± 41 s | Tracheal phenol red excretion amount [2, 5]: 0.962 ± 0.101 mg/L | Latentperiod [3, 6]: 39.4 ± 4.1 s | Number of coughs [3, 6]: 19.4 ± 6.3 times/2 min

COc1ccc2c(c1)c(CC(=O)N[C@H](CC(=O)O)C(=O)O)cn2[C@@H]1O[C@H](CO)[C@@H](O)[C@H](O)[C@H]1O [Compound 4]
Latentperiod [1, 4]: 120 ± 55 s | Tracheal phenol red excretion amount [2, 5]: 1.072 ± 0.221 mg/L | Latentperiod [3, 6]: 40.3 ± 5.5 s | Number of coughs [3, 6]: 18.5 ± 4.3 times/2 min

O=C(O)C[C@@H](NC(=O)Cc1cn([C@@H]2O[C@H](CO)[C@@H](O)[C@H](O)[C@H]2O)c2ccccc12)C(=O)O [Compound 1, (2-(1-((2R,3R,4S,5S,6R)-3,4,5-trihydroxy-6-(hydroxymethyl)tetrahydro-2H-pyran-2-yl)-1H-indol-3-yl)acetyl)-D-aspartic acid]
Latentperiod [1, 4]: 147 ± 89 s | Tracheal phenol red excretion amount [2, 5]: 1.125 ± 0.129 mg/L | Latentperiod [3, 6]: 45.8 ± 8.2 s | Number of coughs [3, 6]: 19.1 ± 10.7 times/2 min

COc1ccc2c3c1O[C@H]1[C@@H](O)C=C[C@H]4[C@@H](C2)N(C)CC[C@@]341 [Codeine phosphate, reference compound]
Latentperiod ([1]; positive control dose 15 mL·kg^-1 intragastric for five days, n=18): 107 ± 41 s | Latentperiod [3, 7]: 48.3 ± 5.9 s | Number of coughs [3, 7]: 14.2 ± 6.5 times/2 min

O=C(O)C[C@@H](NC(=O)Cc1cn([C@@H]2O[C@H](CO)[C@@H](O)[C@H](O)[C@H]2O)c2ccc(Br)cc12)C(=O)O [Compound 6, (2-(5-bromo-1-((2R,3R,4S,5S,6R)-3,4,5-trihydroxy-6-(hydroxymethyl)tetrahydro-2H-pyran-2-yl)-1H-indol-3-yl)acetyl)-D-aspartic acid]
Latentperiod [1, 4]: 127 ± 52 s | Tracheal phenol red excretion amount [2, 5]: 0.888 ± 0.145 mg/L | Latentperiod [3, 6]: 40.7 ± 5.2 s | Number of coughs [3, 6]: 21.8 ± 7.3 times/2 min

Cc1ccc2c(c1)c(CC(=O)N[C@H](CCC(=O)O)C(=O)O)cn2[C@@H]1O[C@H](CO)[C@@H](O)[C@H](O)[C@H]1O [Compound 9]
Latentperiod [1, 4]: 121 ± 47 s | Tracheal phenol red excretion amount [2, 5]: 1.089 ± 0.139**^1 mg · L^−1 | Latentperiod [3, 6]: 38.1 ± 4.7 s | Number of coughs [3, 6]: 23.8 ± 5.1 times/2 min

COc1cccc2c(CC(=O)N[C@H](CC(=O)O)C(=O)O)cn([C@@H]3O[C@H](CO)[C@@H](O)[C@H](O)[C@H]3O)c12 [Compound 8]
Latentperiod [1, 4]: 110 ± 32 s | Tracheal phenol red excretion amount [2, 5]: 1.142 ± 0.132 mg/L | Latentperiod [3, 6]: 39.6 ± 5.5 s | Number of coughs [3, 6]: 19.2 ± 4.7 times/2 min

O=C(O)C[C@@H](NC(=O)Cc1cn([C@@H]2O[C@H](CO)[C@@H](O)[C@H](O)[C@H]2O)c2ccc(Cl)cc12)C(=O)O [Compound 5, (2-(5-chloro-1-((2R,3R,4S,5S,6R)-3,4,5-trihydroxy-6-(hydroxymethyl)tetrahydro-2H-pyran-2-yl)-1H-indol-3-yl)acetyl)-D-aspartic acid]
Latentperiod [1, 4]: 110 ± 32 s | Tracheal phenol red excretion amount [2, 5]: 0.831 ± 0.107 mg/L | Latentperiod [3, 6]: 42.6 ± 11.2 s | Number of coughs [3, 6]: 19.6 ± 5.1 times/2 min

Cc1cccc2c(CC(=O)N[C@H](CC(=O)O)C(=O)O)cn([C@@H]3O[C@H](CO)[C@@H](O)[C@H](O)[C@H]3O)c12 [Compound 7]
Latentperiod [1, 4]: 130 ± 22 s | Tracheal phenol red excretion amount [2, 5]: 0.956 ± 0.270 mg/L | Latentperiod [3, 6]: 42.1 ± 7.2 s | Number of coughs [3, 6]: 18.6 ± 8.5 times/2 min

Cc1ccc2c(c1)c(CC(=O)N[C@H](CC(=O)O)C(=O)O)cn2[C@@H]1O[C@H](CO)[C@@H](O)[C@H](O)[C@H]1O [Compound 3, (2-(5-methyl-1-((2R,3R,4S,5S,6R)-3,4,5-trihydroxy-6-(hydroxymethyl)tetrahydro-2H-pyran-2-yl)-1H-indol-3-yl)acetyl)-D-aspartic acid]
Latentperiod [1, 4]: 128 ± 65 s | Tracheal phenol red excretion amount [2, 5]: 0.971 ± 0.114 mg/L | Latentperiod [3, 6]: 38.1 ± 5.3 s | Number of coughs [3, 6]: 20.7 ± 5.2 times/2 min

Cl.N [Ammonium chloride, reference compound]
Tracheal phenol red excretion amount ([2]; positive control dose 1000 mg·kg^-1 intragastric for five days): 1.068 ± 0.224 mg/L

O=C(O)CC[C@@H](NC(=O)Cc1cn([C@@H]2O[C@H](CO)[C@@H](O)[C@H](O)[C@H]2O)c2ccccc12)C(=O)O [Compound 2, (2-(1-((2R,3R,4S,5S,6R)-3,4,5-trihydroxy-6-(hydroxymethyl)tetrahydro-2H-pyran-2-yl)-1H-indol-3-yl)acetyl)-D-glutamic acid]
Latentperiod [1, 4]: 98 ± 59 s | Tracheal phenol red excretion amount [2, 5]: 0.988 ± 0.211 mg/L | Latentperiod [3, 6]: 48.5 ± 9.4 s | Number of coughs [3, 6]: 17.3 ± 4.6 times/2 min

Reference: patent US11008360B2, “Indoleacetic acid derivative and preparation method and pharmaceutical use thereof” (Institute of Chinese Materia Medica, China Academy of …, priority 2017, dated 2021)
